Experiments:
[1] = target: T1, 3-hydroxyanthranilate 3,4-dioxygenase (Rattus norvegicus) (UniProt P46953); assay: Inhibition of 3-HAO in Sprague-Dawley rat brain homogenates using [1-14C]-3-HANA as substrate assessed as [14C]-QUIN production at 10 uM after 1 hr by liquid scintillation spectrometric analysis relative to control; type: tissue-based
T1 sequence (whole entry): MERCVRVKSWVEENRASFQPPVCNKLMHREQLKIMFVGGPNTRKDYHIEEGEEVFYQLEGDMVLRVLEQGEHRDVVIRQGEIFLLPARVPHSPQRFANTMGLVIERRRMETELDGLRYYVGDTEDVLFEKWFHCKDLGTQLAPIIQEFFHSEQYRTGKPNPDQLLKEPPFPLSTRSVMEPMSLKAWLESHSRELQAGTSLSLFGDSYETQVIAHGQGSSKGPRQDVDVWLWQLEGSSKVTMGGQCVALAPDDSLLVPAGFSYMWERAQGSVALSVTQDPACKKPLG

[2] = target: T2, 3-hydroxyanthranilate 3,4-dioxygenase (Homo sapiens) (UniProt P46952); assay: Inhibition of 3-HAO in human brain homogenates using [1-14C]-3-HANA as substrate assessed as [14C]-QUIN production at 1 mM after 1 hr by liquid scintillation spectrometric analysis relative to control; type: tissue-based
T2 sequence (whole entry): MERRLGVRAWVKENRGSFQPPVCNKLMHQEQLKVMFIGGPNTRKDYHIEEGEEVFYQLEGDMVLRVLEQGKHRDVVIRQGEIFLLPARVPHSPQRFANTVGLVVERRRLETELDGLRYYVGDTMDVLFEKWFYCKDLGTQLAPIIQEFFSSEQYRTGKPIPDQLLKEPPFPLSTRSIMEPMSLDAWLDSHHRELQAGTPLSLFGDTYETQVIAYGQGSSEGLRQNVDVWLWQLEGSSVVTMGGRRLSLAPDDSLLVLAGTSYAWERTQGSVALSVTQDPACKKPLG

[3] = target: T2, 3-hydroxyanthranilate 3,4-dioxygenase (Homo sapiens); assay: Inhibition of 3-HAO in human brain homogenates using [1-14C]-3-HANA as substrate assessed as [14C]-QUIN production at 100 uM after 1 hr by liquid scintillation spectrometric analysis relative to control; type: tissue-based
[4] = target: T2, 3-hydroxyanthranilate 3,4-dioxygenase (Homo sapiens); assay: Inhibition of 3-HAO in human brain homogenates using [1-14C]-3-HANA as substrate assessed as [14C]-QUIN production at 10 uM after 1 hr by liquid scintillation spectrometric analysis relative to control; type: tissue-based
[5] = target: T1, 3-hydroxyanthranilate 3,4-dioxygenase (Rattus norvegicus); assay: Inhibition of 3-HAO in Sprague-Dawley rat brain homogenates using [1-14C]-3-HANA as substrate assessed as [14C]-QUIN production at 1 mM after 1 hr by liquid scintillation spectrometric analysis relative to control; type: tissue-based
[6] = target: T1, 3-hydroxyanthranilate 3,4-dioxygenase (Rattus norvegicus); assay: Inhibition of 3-HAO in Sprague-Dawley rat brain homogenates using [1-14C]-3-HANA as substrate assessed as [14C]-QUIN production at 100 uM after 1 hr by liquid scintillation spectrometric analysis relative to control; type: tissue-based
[7] = Drug degradation in PBS buffer assessed as parent compound level at 100 uM after 24 hrs by HPLC/UV-vis spectroscopic analysis; type: physicochemical; details: read-out: Stability
[8] = Drug degradation in PBS buffer assessed as parent compound level at 10 uM after 24 hrs by HPLC/UV-vis spectroscopic analysis; type: physicochemical; details: read-out: Stability
Rattus norvegicus = assay: In vivo inhibition of 3-HAO in excitotoxically lesioned Sprague-Dawley rat striatum assessed as de novo formation of [3H]-QUIN administered as intrastriatally measured after 2 hrs (reference value: 3.4 +/- 0.5%); type: functional
[9] = target: T3, 3-hydroxyanthranilate 3,4-dioxygenase (Homo sapiens, UniProt P46952); assay: Inhibition of 3-HAO in human brain homogenates using [1-14C]-3-HANA as substrate assessed as [14C]-QUIN production after 1 hr by liquid scintillation spectrometric analysis; type: tissue-based
T3 sequence (P46952 whole entry): T2 sequence (whole entry)

[10] = target: T4, 3-hydroxyanthranilate 3,4-dioxygenase (Rattus norvegicus, UniProt P46953); assay: Inhibition of 3-HAO in Sprague-Dawley rat brain homogenates using [1-14C]-3-HANA as substrate assessed as [14C]-QUIN production after 1 hr by liquid scintillation spectrometric analysis; type: tissue-based
T4 sequence (P46953 whole entry): T1 sequence (whole entry)

[11] = Chemical stability in PBS buffer assessed as auto-oxidative degradation after 24 hrs by HPLC analysis; type: physicochemical; details: read-out: Drug degradation

With `O=c1[nH]cnc2c1ccc[n+]2[O-]` the inhibition [1] was 0.6%, the inhibition [2] was 44.3% and the inhibition [3] was 13%. The inhibition [4] was 5.5%, the inhibition [5] was 46.9% and the inhibition [6] was 6.4%.

Compound `Cc1ccc(C(N)=O)c(N)[n+]1[O-]` has an inhibition [1] of -1.1%, an inhibition [2] of 20.1% and an inhibition [3] of 1.3%. The inhibition [4] was 1.7%, the inhibition [5] was 11.5% and the inhibition [6] was -2%.

Work on `Cc1cc(C(C)C)c(C(=O)O)c(N)[n+]1[O-]` yielded an inhibition [1] of 1.1%, an inhibition [2] of 24.1% and an inhibition [3] of 10.2%. The inhibition [4] was 4%, the inhibition [5] was 25.7% and the inhibition [6] was 2.2%.

For `Cc1cc(C(=O)O)c(N)[n+]([O-])c1C`, the inhibition [1] was 17.6%, the inhibition [2] was 89.1% and the inhibition [3] was 76.3%. It also gave an inhibition [4] of 31.3%, an inhibition [5] of 85.8% and an inhibition [6] of 61.6%.

Compound `CC(C)c1cc(C(C)C)[n+]([O-])c(N)c1C(=O)O` has an inhibition [1] of 1.2%, an inhibition [2] of 10.6% and an inhibition [3] of 1.5%. It also gave an inhibition [4] of -5.4%, an inhibition [5] of 14.6% and an inhibition [6] of 2.9%.

With `CCc1cc(C)[n+]([O-])c(N)c1C(=O)O` the inhibition [1] was 2.8%, the inhibition [2] was 20% and the inhibition [3] was 10.9%. It also gave an inhibition [4] of 8.5%, an inhibition [5] of 23% and an inhibition [6] of 3.1%.

`CCc1ccc(C(=O)O)c(N)[n+]1[O-]` gave an inhibition [1] of 69.9%, an inhibition [2] of 90.4% and an inhibition [3] of 88.4%. The inhibition [4] was 76.6%, the inhibition [5] was 94.2% and the inhibition [6] was 90.7%.

`Cc1ccc(C(=O)O)c(N)n1` gave an inhibition [1] of -2.1%, an inhibition [2] of 24.8% and an inhibition [3] of 0.7%. It also gave an inhibition [4] of -3.6%, an inhibition [5] of 42.5% and an inhibition [6] of 5.1%.

Work on `COC(=O)c1ccc(C)[n+]([O-])c1N` yielded an inhibition [1] of 1%, an inhibition [2] of 6% and an inhibition [3] of -5.8%. The inhibition [4] was -7.9%, the inhibition [5] was 9.3% and the inhibition [6] was 1.2%.

`O=C(O)c1ccc(Cl)[n+]([O-])c1` gave an inhibition [1] of 2.9%, an inhibition [2] of 30.4% and an inhibition [3] of -3%. The inhibition [4] was -5.4%, the inhibition [5] was 37% and the inhibition [6] was 11.4%.

With `Nc1c(C(=O)O)ccc(Cl)[n+]1[O-]` the inhibition [1] was 67.3%, the inhibition [2] was 95.2% and the inhibition [3] was 89.6%. It also gave an inhibition [4] of 72.9%, an inhibition [5] of 95.2% and an inhibition [6] of 84%.

In the case of `Nc1c(C(=O)O)ccc[n+]1[O-]`, the inhibition [1] is reported as 47.6%, the remaining at 24 h, 100 µM [7] is reported as 103% and the remaining at 24 h, 10 µM [8] is reported as 101%. It also gave an inhibition [2] of 94%, an inhibition [3] of 88.8% and an inhibition [4] of 74%. For the same compound, the inhibition [5] was 92.4% and the inhibition [6] was 84.9%.

For `Cc1ccc(C(=O)O)c(N)[n+]1[O-]`, the inhibition [1] was 76.9%, the remaining at 24 h, 100 µM [7] was 102% and the “[3H]-QUIN formed” value (Rattus norvegicus) was 0.9%. It also gave an IC50 [9] of 1100 nM, an IC50 [10] of 2800 nM and a remaining at 24 h, 10 µM [8] of 101%. For the same compound, the inhibition [2] was 94.4%, the inhibition [3] was 92.3% and the inhibition [4] was 85.5%. For the same compound, the inhibition [5] was 96% and the inhibition [6] was 94.1%.

Work on `Nc1c(C(=O)O)cc(Br)c[n+]1[O-]` yielded an inhibition [1] of 14.5%, an inhibition [2] of 89.1% and an inhibition [3] of 67.2%. The inhibition [4] was 22.9%, the inhibition [5] was 83.7% and the inhibition [6] was 55.2%.

With `Cc1ccc(C#N)c(N)[n+]1[O-]` the inhibition [1] was -2.4%, the inhibition [2] was 5.6% and the inhibition [3] was -0.5%. It also gave an inhibition [4] of -2.9%, an inhibition [5] of 2.4% and an inhibition [6] of -0.6%.

In the case of `Nc1c(C(=O)O)cc(Cl)c[n+]1[O-]`, the inhibition [1] is reported as 9.1%, the inhibition [2] is reported as 85.9% and the inhibition [3] is reported as 68.6%. The inhibition [4] was 24.8%, the inhibition [5] was 74.4% and the inhibition [6] was 42.6%.

`Cc1cc(-c2ccccc2)c(C(=O)O)c(N)[n+]1[O-]` gave an inhibition [1] of 2.4%, an inhibition [2] of 7.4% and an inhibition [3] of 4.1%. The inhibition [4] was -2.8%, the inhibition [5] was 14.8% and the inhibition [6] was 5.5%.

In the case of `Nc1c(C(=O)O)ccc(Cl)c1O`, the degraded at 24 h [11] is reported as 62%.

For `Cc1cc(C)[n+]([O-])c(N)c1C(=O)O`, the inhibition [1] was -0.8%, the inhibition [2] was 69.5% and the inhibition [3] was 16.3%. The inhibition [4] was 0.7%, the inhibition [5] was 46.6% and the inhibition [6] was 4.3%.

In the case of `Cc1cc(C(=O)O)c(N)[n+]([O-])c1`, the inhibition [1] is reported as 8.7%, the inhibition [2] is reported as 80.1% and the inhibition [3] is reported as 52.6%. It also gave an inhibition [4] of 16.3%, an inhibition [5] of 67.6% and an inhibition [6] of 30.7%.
